Drawing on ChEMBL document CHEMBL5344424, “3-Hydroxypyridin-4(1H)-one Derivatives as pqs Quorum Sensing Inhibitors Attenuate Virulence and Reduce Antibiotic Resistance in Pseudomonas aeruginosa” (J Med Chem, 2023), this text covers IC50, inhibition and survival for 43 molecules.

Test [1] can be described thus: Inhibition of quorum sensing system in Pseudomonas aeruginosa PAO1 assessed as inhibition of pyocyanin production incubated for 24 hrs by optical density based analysis.
Test [2] can be described thus: Inhibition of quorum sensing system in Pseudomonas aeruginosa PAO1 assessed as inhibition of pyocyanin production at 10 uM incubated for 24 hrs by optical density based analysis relative to control.
For the next test, the system named is Pseudomonas aeruginosa. Briefly: Synergistic antibacterial activity against Pseudomonas aeruginosa PAO1 infected in Caenorhabditis elegans assessed as worm survival rate at 0.125 ug/ml incubated for 72 hrs in presence of compound 16e by bright-field microscopy relative to control. It is filed as functional.

Each structure is given as a SMILES string.

Regarding `Cc1cc(=O)c(O)c(CNCc2cn(-c3ccc(C#N)cc3)nn2)n1C`, in test [1], the IC50 (as a rule, the concentration at which inhibition is half-maximal) was more than 50 µM.
For `CCCCCCCCCn1cc(CNCc2c(O)c(=O)cc(C)n2C)nn1`, the concentration for half-maximal inhibition (IC50) in test [1] worked out at 6.6 µM. In test [2], the inhibition (usually the drop in the measured response relative to a control, in per cent) stood at 51.2%.
On to `CCCCCn1cc(CNCc2c(O)c(=O)cc(C)n2C)nn1`, for which the 50% inhibitory concentration (IC50) in test [1] was 35.3 µM.
Turning to `Cc1cc(=O)c(O)cn1Cc1cn(-c2ccc(Oc3ccccc3)cc2)nn1`, in test [1], the half-inhibitory concentration (IC50) is 8.4 µM. Moreover, the inhibition in test [2] worked out at 43.3%.
As to `COC(=O)c1ccccc1-n1cc(CNCc2c(O)c(=O)cc(C)n2C)nn1`, the half-maximal inhibitory concentration (IC50) in test [1] came to 28.4 µM.
On the same count and under the same terms, the same measure for `Cc1cc(=O)c(O)c(CNCc2cn(-c3cccc(F)c3)nn2)n1C`: 45.8 µM.
As to `Cc1cc(=O)c(O)c(CNCc2cn(-c3ccc(N(C)C)cc3)nn2)n1C`, the concentration for half-maximal inhibition (IC50) in test [1] is 33.2 µM.
For `Cc1cc(=O)c(O)c(CNCc2cn(-c3cccc(Cl)c3)nn2)n1C`, the IC50 in test [1] was more than 50 µM.
For `CCCCCCn1cc(CNCc2c(O)c(=O)cc(C)n2C)nn1`, the IC50 in test [1] is 35.9 µM.
Turning to `CCCCCCCCn1cc(CNCc2c(O)c(=O)cc(C)n2C)nn1`, the concentration for half-maximal inhibition (IC50) in test [1] amounted to 4.6 µM. Moreover, in test [2], the inhibition was 64%.
Consider `CCCCn1cc(CNCc2c(O)c(=O)cc(C)n2C)nn1`, for which the IC50 in test [1] was more than 50 µM.
As to `Cc1cc(=O)c(O)c(COCc2cn(-c3ccc(Oc4ccccc4)cc3)nn2)n1C`, in test [1], the IC50 came out at 5.1 µM. In addition, in test [2], the inhibition is 55.1%.
Consider `Cc1ccc(-n2cc(CNCc3c(O)c(=O)cc(C)n3C)nn2)cc1`, for which the IC50 in test [1] is 8.5 µM. For the same molecule, the inhibition in test [2] was determined as 44.9%.
In the same order, the values of `Cc1cc(=O)c(O)c(CNCc2cn(-c3ccccc3C(F)(F)F)nn2)n1C` are 9.8 µM and 49%.
With `Cc1cc(=O)c(O)c(CNCc2cn(-c3ccc(Br)cc3)nn2)n1C`, the concentration for half-maximal inhibition (IC50) in test [1] was 46.2 µM.
With `Cc1cc(=O)c(O)c(CNCc2cn(-c3ccc(F)cc3)nn2)n1C`, in test [1], the IC50 worked out at 18.2 µM.
As for `Cc1cc(=O)c(O)c(CNCC(=O)Nc2ccc(Oc3ccccc3)cc2)n1C`, in test [1], the 50% inhibitory concentration (IC50) turned out to be 19.4 µM.
On to `Cc1cc(=O)c(O)c(CNCc2cn(-c3ccc(C(F)(F)F)cc3)nn2)n1C`, for which the half-maximal inhibitory concentration (IC50) in test [1] stood at 7.7 µM. Moreover, in test [2], the inhibition worked out at 60.1%.
For `Cc1cc(=O)c(O)c(CNCc2cn(-c3ccc(N)cc3)nn2)n1C`, the 50% inhibitory concentration (IC50) in test [1] is 44.9 µM.
Regarding `CCCCCCCn1cc(CNCc2c(O)c(=O)cc(C)n2C)nn1`, the half-maximal inhibitory concentration (IC50) in test [1] turned out to be 22 µM.
Consider `CC(=O)c1ccccc1-n1cc(CNCc2c(O)c(=O)cc(C)n2C)nn1`, for which, in test [1], the IC50 was found to be 24.8 µM.
Still for that read-out and setting: the same measure for `COc1ccccc1-n1cc(CNCc2c(O)c(=O)cc(C)n2C)nn1`: 29.2 µM; for `Cc1cc(=O)c(O)c(CNCc2cn(-c3ccccc3)nn2)n1C`: 34.7 µM; for `Cc1cc(=O)c(O)c(CNCc2cn(-c3ccccc3C#N)nn2)n1C`: more than 50 µM.
Turning to `Cc1cc(=O)c(O)c(CNCc2cn(-c3ccccc3OC(F)(F)F)nn2)n1C`, in test [1], the IC50 was found to be 8.1 µM. Also, the inhibition in test [2] is 50.1%.
For `CC(=O)c1ccc(-n2cc(CNCc3c(O)c(=O)cc(C)n3C)nn2)cc1`, the IC50 in test [1] was found to be 37.4 µM.
For `Cc1cc(=O)c(O)c(CNCc2cn(-c3ccc(O)cc3)nn2)n1C`, in test [1], the IC50 was 24 µM.
Regarding `Cn1cc(O)c(=O)cc1CNCc1cn(-c2ccc(OC(F)(F)F)cc2)nn1`, in test [1], the IC50 is 18.9 µM.
For the molecule `Cc1cc(=O)c(O)c(CNCc2cn(-c3ccncc3)nn2)n1C`, the concentration for half-maximal inhibition (IC50) in test [1] is more than 50 µM.
Consider `Cc1cc(=O)c(O)c(CNCc2cn(-c3ccccc3[N+](=O)[O-])nn2)n1C`, for which the IC50 in test [1] is more than 50 µM.
For the molecule `Cc1cc(=O)c(O)c(CNCc2cn(-c3ccc(OC(F)(F)F)cc3)nn2)n1C`, in test [1], the IC50 stood at 4 µM. Moreover, in test [2], the inhibition came to 66.7%.
On to `Cc1cc(=O)c(O)c(CNCc2cn(-c3ccccn3)nn2)n1C`, for which, in test [1], the IC50 was more than 50 µM.
Regarding `CCCCCCCCn1cc(CNCc2cc(=O)c(O)cn2C)nn1`, the IC50 in test [1] came out at 21 µM.
Regarding `COC(=O)c1ccc(-n2cc(CNCc3c(O)c(=O)cc(C)n3C)nn2)cc1`, in test [1], the half-inhibitory concentration (IC50) was determined as 45.8 µM.
For `Cc1cc(=O)c(O)c(CNCc2cn(-c3ccc(Cl)cc3)nn2)n1C`, the IC50 in test [1] worked out at 15.2 µM.
For the molecule `Cc1cc(=O)c(O)c(CNCc2cn(-c3ccccc3Cl)nn2)n1C`, the 50% inhibitory concentration (IC50) in test [1] was 18.4 µM.
For the molecule `Cc1cc(=O)c(O)c(CNCc2cn(-c3ccc(N4CCN(C)CC4)cc3)nn2)n1C`, in test [1], the IC50 is more than 50 µM.
Still for that read-out and setting: the same measure for `Cc1cc(=O)c(O)c(CNCc2cn(-c3ccccc3F)nn2)n1C`: 18.2 µM.
As for `COc1ccc(-n2cc(CNCc3c(O)c(=O)cc(C)n3C)nn2)cc1`, the half-inhibitory concentration (IC50) in test [1] came out at 6.9 µM. Besides, the inhibition in test [2] was 52%.
For `COc1cccc(-n2cc(CNCc3c(O)c(=O)cc(C)n3C)nn2)c1`, the IC50 in test [1] was 42 µM.
With `O=C(O)c1cn(C2CC2)c2cc(N3CCNCC3)c(F)cc2c1=O` [CIPROFLOXACIN], the survival at 0.125 µg/mL with Pseudomonas aeruginosa came to 35.7%.
Regarding `Cn1cc(O)c(=O)cc1CNCc1cn(-c2ccc(Oc3ccccc3)cc2)nn1`, in test [1], the IC50 turned out to be 6.1 µM. For the same molecule, the inhibition in test [2] amounted to 58.3%.
As for `Cc1cc(=O)c(O)c(CNCc2cn(-c3ccccc3Br)nn2)n1C`, the half-maximal inhibitory concentration (IC50) in test [1] was 32.2 µM.
